The assay concerns L1210 leukemia ip in BDF1 mice, survival T/C. Briefly: NCI In Vivo Anticancer Drug Screen. Data for tumor model L1210 Leukemia (intraperitoneal) in B6D2F1 (BDF1) mice. The settings on record: endpoint: mean survival time, higher = longer survival. The gist of the method: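 Each compound was tested against a transplantable tumor grown in mice. The endpoint was survival, with treated animals benchmarked against vehicle controls as a simple ratio.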

The mark [1] stands for this setting: dose: 100.0 mg/kg/injection, schedule: Q01DX001 (ip), vehicle: saline.
[2] abbreviates: dose: 200.0 mg/kg/injection, schedule: Q01DX001 (ip), vehicle: saline.
Setting [3] is: dose: 400.0 mg/kg/injection, schedule: Q01DX001 (ip), vehicle: saline.
Setting [4] is: dose: 100.0 mg/kg/injection, schedule: Q01DX009 (ip), vehicle: saline with Tween-80.
The mark [5] stands for this setting: dose: 200.0 mg/kg/injection, schedule: Q01DX009 (ip), vehicle: saline with Tween-80.
The mark [6] stands for this setting: dose: 100.0 mg/kg/injection, schedule: Q01DX009 (ip), vehicle: Klucel (hydroxypropylcellulose) (HPC).
The mark [7] stands for this setting: dose: 200.0 mg/kg/injection, schedule: Q01DX009 (ip), vehicle: Klucel (hydroxypropylcellulose) (HPC).
Setting [8] is: dose: 400.0 mg/kg/injection, schedule: Q01DX009 (ip), vehicle: Klucel (hydroxypropylcellulose) (HPC).
Setting [9] is: dose: 100.0 mg/kg/injection, schedule: Q04DX003 (ip), vehicle: saline with Tween-80.
The mark [10] stands for this setting: dose: 100.0 mg/kg/injection, schedule: Q04DX003 (ip), vehicle: saline.
Setting [11] is: dose: 200.0 mg/kg/injection, schedule: Q04DX003 (ip), vehicle: saline.

Values joined by “and” are separate entries in the source; they are usually repeats but may differ in a detail not shown here. Equal entries are not always repeated. Inconclusive results and toxic doses are left out.

For the compound `N#CCC1(O)c2ccccc2-c2ccccc21`, the T/C runs as follows: (dose: 50.0 mg/kg/injection, schedule: Q01DX001 (ip), vehicle: saline) 98 % of control; under setting [1], 98 % of control; under setting [2], 102 % of control; under setting [3], 96 % of control.
Take `O=C(O)COCc1ccccc1`: the T/C by setting is: (dose: 100.0 mg/kg/injection, schedule: Q04DX003 (ip), vehicle: saline sonified) 97 % of control; (dose: 200.0 mg/kg/injection, schedule: Q04DX003 (ip), vehicle: saline sonified) 92 % of control; (dose: 400.0 mg/kg/injection, schedule: Q04DX003 (ip), vehicle: saline sonified) 92 % of control.
`CCCC[P+](CCCC)(CCCC)CCCC`: the T/C is, setting by setting: (dose: 5.0 mg/kg/injection, schedule: Q01DX001 (ip), vehicle: saline) 102 % of control; (dose: 6.25 mg/kg/injection, schedule: Q04DX002 (ip), vehicle: Klucel (hydroxypropylcellulose) (HPC)) 89 % of control; (dose: 10.0 mg/kg/injection, schedule: Q01DX001 (ip), vehicle: saline) 123 % of control; (dose: 12.5 mg/kg/injection, schedule: Q04DX002 (ip), vehicle: Klucel (hydroxypropylcellulose) (HPC)) 103 % of control; (dose: 20.0 mg/kg/injection, schedule: Q01DX001 (ip), vehicle: saline) 104 % of control; (dose: 25.0 mg/kg/injection, schedule: Q04DX002 (ip), vehicle: Klucel (hydroxypropylcellulose) (HPC)) 95 % of control and 104 % of control.
As to `O=S1(=O)CC(Cl)C(I)C1` (stereo not drawn), the T/C by setting is: under setting [4], 102 % of control; under setting [5], 109 % of control.
For `O=C(O)c1ccc(NC(Nc2ccc(C(=O)O)cc2)C(=O)c2ccccc2)cc1`, the T/C was 95 % of control under setting [1], 89 % of control under setting [2] and 101 % of control under setting [3].
Turning to `O=C1OC(c2cccc3c(F)cccc23)c2ccccc21` (stereo not drawn), the T/C is, setting by setting: under setting [6], 96 % of control; under setting [7], 95 % of control; under setting [8], 93 % of control.
In the case of `COCC(O)C(OC)C(OC)C(C=O)NC(=O)N(CCCl)N=O` (stereo not drawn), the T/C is, setting by setting: (dose: 14.0 mg/kg/injection, schedule: Q01DX001 (ip), vehicle: saline with Tween-80) 159 % of control; (dose: 22.0 mg/kg/injection, schedule: Q01DX001 (ip), vehicle: saline with Tween-80) 181 % of control; (dose: 33.5 mg/kg/injection, schedule: Q01DX001 (ip), vehicle: saline with Tween-80) 331 % of control; (dose: 50.0 mg/kg/injection, schedule: Q01DX001 (ip), vehicle: saline with Tween-80) 431 % of control; (dose: 75.0 mg/kg/injection, schedule: Q01DX001 (ip), vehicle: saline with Tween-80) 489 % of control; (dose: 112.0 mg/kg/injection, schedule: Q01DX001 (ip), vehicle: saline with Tween-80) 227 % of control.
Regarding `O=C(NCCCC(NC(=O)OCc1ccccc1)C(=O)NCCCNCCCCNCCCNC(=O)C(CCCNC(=O)OCc1ccccc1)NC(=O)OCc1ccccc1)OCc1ccccc1` (stereo not drawn), the T/C (dose: 10.0 mg/kg/injection, schedule: Q01DX Z (ip), vehicle: saline) was 90 % of control.
Consider `O=C(/C=C/c1ccccc1)CC(=O)c1ccccc1`, for which the T/C was 102 % of control (dose: 100.0 mg/kg/injection, schedule: Q04DX003 (ip), vehicle: DMSO); 97 % of control (dose: 200.0 mg/kg/injection, schedule: Q04DX003 (ip), vehicle: DMSO); 96 % of control (dose: 400.0 mg/kg/injection, schedule: Q04DX003 (ip), vehicle: DMSO).
With `COc1ccc(-c2c(O)c3cccc(-c4ccccc4)c3oc2=O)cc1`, the T/C (dose: 25.0 mg/kg/injection, schedule: Q04DX003 (ip), vehicle: saline with Tween-80) is 116 % of control; the T/C (dose: 50.0 mg/kg/injection, schedule: Q04DX003 (ip), vehicle: saline with Tween-80) was 96 % of control; the T/C under setting [9] is 101 % of control; the T/C under setting [10] was 95 % of control; the T/C under setting [11] was 93 % of control.
As to `Cc1cc(Cl)ccc1OCC(=O)NCC(C)O` (stereo not drawn), the T/C reads like this: (dose: 100.0 mg/kg/injection, schedule: Q04DX002 (ip), vehicle: Klucel (hydroxypropylcellulose) (HPC)) 100 % of control; (dose: 200.0 mg/kg/injection, schedule: Q04DX002 (ip), vehicle: Klucel (hydroxypropylcellulose) (HPC)) 98 % of control; (dose: 400.0 mg/kg/injection, schedule: Q04DX002 (ip), vehicle: Klucel (hydroxypropylcellulose) (HPC)) 98 % of control.
As for `O=C(NO)c1cnccn1`, the T/C (dose: 296.0 mg/kg/injection, schedule: Q01DX015 (ip), vehicle: water) was 92 % of control; the T/C (dose: 666.0 mg/kg/injection, schedule: Q01DX015 (ip), vehicle: water) is 118 % of control; the T/C (dose: 1000.0 mg/kg/injection, schedule: Q01DX015 (ip), vehicle: water) was 120 % of control.
With `C[N+](C)(C)c1ccc([N+](=O)[O-])cn1`, the T/C under setting [10] is 101 % of control.
In the case of `COC1OC(COC(=O)c2ccccc2)C(OC(=O)Nc2ccccc2)C1O` (stereo not drawn), the T/C reads like this: under setting [4], 90 % of control; under setting [9], 93 % of control; under setting [5], 100 % of control; (dose: 200.0 mg/kg/injection, schedule: Q04DX003 (ip), vehicle: saline with Tween-80) 98 % of control; (dose: 400.0 mg/kg/injection, schedule: Q01DX009 (ip), vehicle: saline with Tween-80) 95 % of control; (dose: 400.0 mg/kg/injection, schedule: Q04DX003 (ip), vehicle: saline with Tween-80) 92 % of control.
Consider `CCOC(=O)NC(C(=O)OC)C(=O)OC`, for which the T/C reads like this: under setting [6], 97 % of control; under setting [10], 100 % of control; under setting [7], 97 % of control; under setting [11], 97 % of control; under setting [8], 97 % of control; (dose: 400.0 mg/kg/injection, schedule: Q04DX003 (ip), vehicle: saline) 100 % of control.
With `O=C(Nc1cccc(CO)c1)c1ccc(S(=O)(=O)F)cc1`, the T/C is, setting by setting: (dose: 100.0 mg/kg/injection, schedule: Q01DX001 (ip), vehicle: Klucel (hydroxypropylcellulose) (HPC)) 99 % of control; (dose: 200.0 mg/kg/injection, schedule: Q01DX001 (ip), vehicle: Klucel (hydroxypropylcellulose) (HPC)) 89 % of control; (dose: 400.0 mg/kg/injection, schedule: Q01DX001 (ip), vehicle: Klucel (hydroxypropylcellulose) (HPC)) 94 % of control.

The values above are taken from PubChem BioAssay AID248 (DTP/NCI, 2004).
